Several values for one entry are separate records, joined by “and”; a condition that tells them apart may be missing. Equal values may be shown once.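 Assay format: 96-well plates, 48-hour exposure. GI50 is the concentration that inhibits growth by half. TGI: total growth inhibition.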
test system: OVCAR-3 ovarian; experiment: inhibition of tumour cell growth, NCI panel, 48 h

`COc1cc(C2C(C(=O)Nc3cc(F)c(F)cc3F)=C(C)NC(C)=C2C(=O)Nc2cc(F)c(F)cc2F)ccc1O` and `Cc1nn(C(=O)c2ccc(Cl)cc2)c2c1C(c1ccc(O)cc1)SC(N)=N2` (stereo unspecified) cannot be ordered by TGI: 38 µM for the first, over 10 µM for the second.

`Nc1ccc2nc3n(c2c1)C(=O)c1ccccc1-3` and `O=c1nc(-c2ccccc2)cc(-c2ccccc2O)[nH]1` cannot be ordered by TGI: over 100 µM for the first, over 100 µM for the second.

`Cn1cc(-c2ccc(-c3cncc(Cl)c3N3CCC4(CCNC4=O)CC3)cc2)cn1` and `O=C(NCc1ccc(S(=O)(=O)c2cc(F)cc(F)c2)cc1)c1ccc2nccn2c1` cannot be ordered by TGI: over 100 µM for the first, over 100 µM for the second.

`CC/C=C/C/C=C/C/C=C/C/C=C/C/C=C/C/C=C/CCC(=O)Nc1ccn([C@@H]2O[C@H](CO)[C@@H](O)C2(F)F)c(=O)n1` and `NC(=S)N/N=C/c1cc(-c2cccc(N)c2)ccn1` are within 1.5-fold of each other in TGI: 25.5 µM for the first, 23.2 µM for the second.

Compared with `C/C(=N\NC(=S)N1CC2CCC(CC2)C1)c1ccccn1`, `C=CCn1c2c(sc1=S)C(S)N=CN2` (stereo unspecified) is higher in TGI: 0.29 µM for the first, over 100 µM for the second.

Compound `O=[N+]([O-])c1ccc(CSCc2ccc(Cl)cc2)cc1` has a TGI of over 100 µM.

Going from `Cn1cc(-c2ccc(-c3cncc(Cl)c3N3CCC4(CCNC4=O)CC3)cc2)cn1` to `CCOc1ccccc1NC(=O)C(C#N)C1=C(Cl)C(=O)c2ccccc2C1=O` (stereo unspecified), the GI50 falls from 34300 nM to 2000 nM (17-fold).

First: CC/C=C/C/C=C/C/C=C/C/C=C/C/C=C/C/C=C/CCC(=O)Nc1ccn([C@@H]2O[C@H](CO)[C@@H](O)C2(F)F)c(=O)n1
Second: O=C(NCc1ccc(S(=O)(=O)c2cc(F)cc(F)c2)cc1)c1ccc2nccn2c1
The GI50 of the first is 3.6-fold higher: 4790 nM for the first, 1320 nM for the second.

First: C/C(=N\NC(=S)N1CC2CCC(CC2)C1)c1ccccn1
Second: NC(=S)N/N=C/c1cc(-c2cccc(N)c2)ccn1
The GI50 of the first is lower: under 14.1 nM for the first, 1670 nM for the second.

For `CCOc1ccccc1NC(=O)C(C#N)C1=C(Cl)C(=O)c2ccccc2C1=O` (stereo unspecified), the TGI was 2.97 µM and 5.04 µM.

test system: SF-268 CNS; experiment: inhibition of tumour cell growth, NCI panel, 48 h

Compared with `O=C(OCc1ccc2c(Cl)cc(Cl)c(O)c2n1)N1CCN(C(=O)c2cc3cc(F)ccc3[nH]2)CC1`, `O=C(NCc1ccc(S(=O)(=O)c2cc(F)cc(F)c2)cc1)c1ccc2nccn2c1` is 18-fold higher in GI50: 1560 nM for the first, 28400 nM for the second.

Compared with `COc1ccc(Cc2cnc(NC(=O)c3ccc4c(c3)OCCO4)s2)cc1`, `N#Cc1ccc(OC(=O)Nc2ccc(Cl)c(Cl)c2)cc1` is 25-fold higher in GI50: 211 nM for the first, 5270 nM for the second.

Compared with `C[C@]12CC[C@@H]3c4ccc(O)c([N+](=O)[O-])c4CC[C@H]3[C@@H]1CC[C@@H]2NS(=O)(=O)c1cccc(Br)c1`, `Cn1cc(-c2ccc(-c3cncc(Cl)c3N3CCC4(CCNC4=O)CC3)cc2)cn1` is 20-fold higher in GI50: 2990 nM for the first, 61200 nM for the second.

Going from `C[C@H]1CCC/C=C/[C@@H]2C[C@H](O)C[C@H]2[C@H](O)[C@@H](SCC(O)CO)CC(=O)O1` (stereo partly specified) to `CC[C@@]1(O)C(=O)OCc2c1cc1n(c2=O)Cc2c-1nc1cc(F)c(C)c3c1c2[C@@H](N)CC3`, the GI50 falls from 10900 nM to under 10 nM.

Compared with `CC/C=C/C/C=C/C/C=C/C/C=C/C/C=C/C/C=C/CCC(=O)Nc1ccn([C@@H]2O[C@H](CO)[C@@H](O)C2(F)F)c(=O)n1`, `NC(=S)N/N=C/c1cc(-c2cccc(N)c2)ccn1` is 16-fold higher in GI50: 63.1 nM for the first, 1020 nM for the second.

`C/C(=N\NC(=S)N1CC2CCC(CC2)C1)c1ccccn1` gave a GI50 of 185 nM.

`O=C(OCc1ccc2c(Cl)cc(Cl)c(O)c2n1)N1CCN(C(=O)c2cc3cc(F)ccc3[nH]2)CC1` and `O=C(NCc1ccc(S(=O)(=O)c2cc(F)cc(F)c2)cc1)c1ccc2nccn2c1` cannot be ordered by TGI: over 100 µM for the first, over 100 µM for the second.

Going from `CC1=C(C(=O)Nc2ccccc2)C(c2ccc(C3C(C(=O)Nc4ccccc4)=C(C)NC(C)=C3C(=O)Nc3ccccc3)cc2)C(C(=O)Nc2ccccc2)=C(C)N1` to `COc1cc(C2C(C(=O)Nc3cc(F)c(F)cc3F)=C(C)NC(C)=C2C(=O)Nc2cc(F)c(F)cc2F)ccc1O`, the TGI rises from 5.7 µM to over 100 µM.

`COc1ccc(Cc2cnc(NC(=O)c3ccc4c(c3)OCCO4)s2)cc1` and `N#Cc1ccc(OC(=O)Nc2ccc(Cl)c(Cl)c2)cc1` cannot be ordered by TGI: over 100 µM for the first, over 100 µM for the second.

First: O=C(O)C12CC3(C(=O)O)CC(C(=O)O)(CC(C(=O)O)(C1)C3=O)C2=O
Second: CC[C@@]1(O)C(=O)OCc2c1cc1n(c2=O)Cc2c-1nc1cc(F)c(C)c3c1c2[C@@H](N)CC3
The TGI of the first is higher: over 100 µM for the first, 2.17 µM for the second.

Compared with `COCOc1ccc(C2(O)Oc3cc(OCOC)ccc3C2C)c(O)c1` (stereo unspecified), `O=c1nc(-c2ccccc2)cc(-c2ccccc2O)[nH]1` is higher in TGI: 30 µM for the first, over 100 µM for the second.

Going from `C[C@]12CC[C@@H]3c4ccc(O)c([N+](=O)[O-])c4CC[C@H]3[C@@H]1CC[C@@H]2NS(=O)(=O)c1cccc(Br)c1` to `Cn1cc(-c2ccc(-c3cncc(Cl)c3N3CCC4(CCNC4=O)CC3)cc2)cn1`, the TGI rises from 10.3 µM to over 100 µM.

Compared with `C[C@H]1CCC/C=C/[C@@H]2C[C@H](O)C[C@H]2[C@H](O)[C@@H](SCC(O)CO)CC(=O)O1` (stereo partly specified), `C/C(=N\NC(=S)N1CC2CCC(CC2)C1)c1ccccn1` is lower in TGI: over 100 µM for the first, 2.4 µM for the second.

Compared with `Nc1ccc2nc3n(c2c1)C(=O)c1ccccc1-3`, `CCOc1ccccc1NC(=O)C(C#N)C1=C(Cl)C(=O)c2ccccc2C1=O` (stereo unspecified) is lower in TGI: over 100 µM for the first, 4.79 µM for the second.

`CC/C=C/C/C=C/C/C=C/C/C=C/C/C=C/C/C=C/CCC(=O)Nc1ccn([C@@H]2O[C@H](CO)[C@@H](O)C2(F)F)c(=O)n1` and `Cc1nn(C(=O)c2ccc(Cl)cc2)c2c1C(c1ccc(O)cc1)SC(N)=N2` (stereo unspecified) cannot be ordered by TGI: 26.3 µM for the first, over 10 µM for the second.

`NC(=S)N/N=C/c1cc(-c2cccc(N)c2)ccn1` and `O=[N+]([O-])c1ccc(CSCc2ccc(Cl)cc2)cc1` cannot be ordered by TGI: over 70.7 µM for the first, over 100 µM for the second.

In the case of `C=CCn1c2c(sc1=S)C(S)N=CN2` (stereo unspecified), the TGI is reported as over 100 µM.

test system: SN12C renal; experiment: inhibition of tumour cell growth, NCI panel, 48 h

Going from `O=C(OCc1ccc2c(Cl)cc(Cl)c(O)c2n1)N1CCN(C(=O)c2cc3cc(F)ccc3[nH]2)CC1` to `O=C(NCc1ccc(S(=O)(=O)c2cc(F)cc(F)c2)cc1)c1ccc2nccn2c1`, the GI50 falls from 1150 nM to under 10 nM.

First: COc1ccc(Cc2cnc(NC(=O)c3ccc4c(c3)OCCO4)s2)cc1
Second: N#Cc1ccc(OC(=O)Nc2ccc(Cl)c(Cl)c2)cc1
The GI50 of the first is 56-fold lower: 55.6 nM for the first, 3090 nM for the second.

Compared with `C[C@]12CC[C@@H]3c4ccc(O)c([N+](=O)[O-])c4CC[C@H]3[C@@H]1CC[C@@H]2NS(=O)(=O)c1cccc(Br)c1`, `Cn1cc(-c2ccc(-c3cncc(Cl)c3N3CCC4(CCNC4=O)CC3)cc2)cn1` is 37-fold higher in GI50: 1720 nM for the first, 63200 nM for the second.

Compared with `C[C@H]1CCC/C=C/[C@@H]2C[C@H](O)C[C@H]2[C@H](O)[C@@H](SCC(O)CO)CC(=O)O1` (stereo partly specified), `CC[C@@]1(O)C(=O)OCc2c1cc1n(c2=O)Cc2c-1nc1cc(F)c(C)c3c1c2[C@@H](N)CC3` is lower in GI50: 34300 nM for the first, under 10 nM for the second.

Going from `CC/C=C/C/C=C/C/C=C/C/C=C/C/C=C/C/C=C/CCC(=O)Nc1ccn([C@@H]2O[C@H](CO)[C@@H](O)C2(F)F)c(=O)n1` to `NC(=S)N/N=C/c1cc(-c2cccc(N)c2)ccn1`, the GI50 rises from 126 nM to 2520 nM (20-fold).

For `C/C(=N\NC(=S)N1CC2CCC(CC2)C1)c1ccccn1`, the GI50 was 228 nM.

`O=C(OCc1ccc2c(Cl)cc(Cl)c(O)c2n1)N1CCN(C(=O)c2cc3cc(F)ccc3[nH]2)CC1` and `O=C(NCc1ccc(S(=O)(=O)c2cc(F)cc(F)c2)cc1)c1ccc2nccn2c1` cannot be ordered by TGI: over 100 µM for the first, over 100 µM for the second.

First: CC1=C(C(=O)Nc2ccccc2)C(c2ccc(C3C(C(=O)Nc4ccccc4)=C(C)NC(C)=C3C(=O)Nc3ccccc3)cc2)C(C(=O)Nc2ccccc2)=C(C)N1
Second: COc1cc(C2C(C(=O)Nc3cc(F)c(F)cc3F)=C(C)NC(C)=C2C(=O)Nc2cc(F)c(F)cc2F)ccc1O
The TGI of the first is 18-fold lower: 4.71 µM for the first, 84.5 µM for the second.

Going from `COc1ccc(Cc2cnc(NC(=O)c3ccc4c(c3)OCCO4)s2)cc1` to `N#Cc1ccc(OC(=O)Nc2ccc(Cl)c(Cl)c2)cc1`, the TGI falls from over 100 µM to 25.8 µM.

`O=C(O)C12CC3(C(=O)O)CC(C(=O)O)(CC(C(=O)O)(C1)C3=O)C2=O` and `CC[C@@]1(O)C(=O)OCc2c1cc1n(c2=O)Cc2c-1nc1cc(F)c(C)c3c1c2[C@@H](N)CC3` cannot be ordered by TGI: over 100 µM for the first, over 100 µM for the second.

Compared with `COCOc1ccc(C2(O)Oc3cc(OCOC)ccc3C2C)c(O)c1` (stereo unspecified), `O=c1nc(-c2ccccc2)cc(-c2ccccc2O)[nH]1` is higher in TGI: 30 µM for the first, over 100 µM for the second.

First: C[C@]12CC[C@@H]3c4ccc(O)c([N+](=O)[O-])c4CC[C@H]3[C@@H]1CC[C@@H]2NS(=O)(=O)c1cccc(Br)c1
Second: Cn1cc(-c2ccc(-c3cncc(Cl)c3N3CCC4(CCNC4=O)CC3)cc2)cn1
The TGI of the first is lower: 3.54 µM for the first, over 100 µM for the second.

Going from `C[C@H]1CCC/C=C/[C@@H]2C[C@H](O)C[C@H]2[C@H](O)[C@@H](SCC(O)CO)CC(=O)O1` (stereo partly specified) to `C/C(=N\NC(=S)N1CC2CCC(CC2)C1)c1ccccn1`, the TGI falls from over 100 µM to 2.03 µM.

`Nc1ccc2nc3n(c2c1)C(=O)c1ccccc1-3` and `NC(=S)N/N=C/c1cc(-c2cccc(N)c2)ccn1` cannot be ordered by TGI: over 100 µM for the first, over 100 µM for the second.

Compared with `CC/C=C/C/C=C/C/C=C/C/C=C/C/C=C/C/C=C/CCC(=O)Nc1ccn([C@@H]2O[C@H](CO)[C@@H](O)C2(F)F)c(=O)n1`, `Cc1nn(C(=O)c2ccc(Cl)cc2)c2c1C(c1ccc(O)cc1)SC(N)=N2` (stereo unspecified) is higher in TGI: 8.78 µM for the first, over 10 µM for the second.

`C=CCn1c2c(sc1=S)C(S)N=CN2` (stereo unspecified) and `O=[N+]([O-])c1ccc(CSCc2ccc(Cl)cc2)cc1` cannot be ordered by TGI: over 100 µM for the first, over 100 µM for the second.
